Literature values in patent US10316097B2, “Method for the treatment of epilepsy, epileptogenesis, seizures or convulsions by an anti-colony-stimulating factor 1 receptor (CSF-1R) antibody” (UCB BIOPHARMA SPRL, priority 2015, dated 2019).

Assays:
[1] = test system: TNF-α-driven inflammation in the brain; settings: systemic administration in rodents
[2] = systemic administration in rodents

Substance: etanercept
- Effect on TNF-α-driven inflammation in the brain [1]: does not affect
- Crossing of the blood-brain barrier (BBB) [2]: does not cross the blood-brain barrier
